Test results reported in patent publication US7488598B2, “Mutant purine nucleoside phosphorylase proteins and cellular delivery thereof” (priority 2001, dated 2009).

Legend:
[1] = target: wild-type E. coli PNP (Escherichia coli, UniProt P0ABP8); settings: Table III; 100 μM substrate; HPLC; average of separate experiments
[2] = target: E. coli PNP mutant M65V (Escherichia coli, UniProt P0ABP8, M65V); settings: for M65V, crude extract, rate of cleavage / M65V, pure enzyme, rate of cleavage: Table III, 100 μM substrate, HPLC, average of separate experiments
Sequence of E. coli PNP mutant M65V (P0ABP8 whole entry M65V): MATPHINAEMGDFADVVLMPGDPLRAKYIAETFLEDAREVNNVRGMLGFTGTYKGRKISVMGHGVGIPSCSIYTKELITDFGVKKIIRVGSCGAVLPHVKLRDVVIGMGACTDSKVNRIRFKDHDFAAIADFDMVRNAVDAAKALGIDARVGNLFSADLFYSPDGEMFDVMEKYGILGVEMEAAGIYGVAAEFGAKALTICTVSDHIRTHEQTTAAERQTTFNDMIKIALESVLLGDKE

Sequence of wild-type E. coli PNP (P0ABP8 whole entry): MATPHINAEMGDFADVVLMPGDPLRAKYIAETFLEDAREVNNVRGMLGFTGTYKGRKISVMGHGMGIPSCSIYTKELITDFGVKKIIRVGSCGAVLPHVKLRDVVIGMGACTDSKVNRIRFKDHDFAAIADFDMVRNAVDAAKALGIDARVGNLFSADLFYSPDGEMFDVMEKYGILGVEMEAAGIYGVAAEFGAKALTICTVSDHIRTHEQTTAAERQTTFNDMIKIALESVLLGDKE

## C[C@H](O)[C@H]1O[C@@H](n2cnc3c(N)nc(F)nc32)[C@H](O)[C@@H]1O [2-Fluoro-9-(6-deoxy-α-L-talofuranosyl)-9H-purin-6-amine]
[1]
  Wild type, pure enzyme, rate of cleavage: 26,000 nmole/mg/hr
[2]; Example 16 analysis
  activity of mutant M65V PNP compared with wild-type PNP (in words): more activity
[2]
  M65V, crude extract, rate of cleavage: 1,110,000 nmole/mg/hr

## C[C@@H](O)[C@H]1O[C@@H](n2cnc3c(N)nc(F)nc32)[C@H](O)[C@@H]1O [2-Fluoro-9-(6-deoxy-β-D-allofuranosyl)-9H-purin-6-amine]
[1]
  Wild type, pure enzyme, rate of cleavage: 2,600 nmole/mg/hr
[2]
  M65V, crude extract, rate of cleavage: 93,000 nmole/mg/hr

## CO[C@@H]1[C@H](O)[C@@H](CO)O[C@H]1n1cnc2c(N)ncnc21 [2′-O-methyl-adenosine]
[1]
  Wild type, pure enzyme, rate of cleavage: — (No detectable activity at 100 μg/ml (limit of detection approximately 1 nmole/mg/hr))
[2]
  M65V, crude extract, rate of cleavage: — (No detectable activity at 100 μg/ml (limit of detection approximately 1 nmole/mg/hr))

## Nc1ncnc2c1ncn2[C@@H]1O[C@H](CO)C[C@H]1O [3′-deoxyadenosine]
[1]
  Wild type, pure enzyme, rate of cleavage: — (No detectable activity at 100 μg/ml (limit of detection approximately 1 nmole/mg/hr))
[2]
  M65V, crude extract, rate of cleavage: — (No detectable activity at 100 μg/ml (limit of detection approximately 1 nmole/mg/hr))

## CSC[C@H]1O[C@@H](n2cnc3c(N)ncnc32)[C@H](O)[C@@H]1O [5′-deoxy-5′-methylthio-adenosine]
[1]
  Wild type, pure enzyme, rate of cleavage: — (No detectable activity at 100 μg/ml (limit of detection approximately 1 nmole/mg/hr))
[2]
  M65V, pure enzyme, rate of cleavage: 690 nmol/mg/h

## Cc1ncnc2c1ncn2[C@@H]1O[C@H]([C@@H](C)O)[C@@H](O)[C@H]1O [5′methyl(allo)-MeP-R, 9-(6-deoxy-β-D-allofuranosyl)-6-methylpurine]
[1]
  Wild type, pure enzyme, rate of cleavage: 47 nmol/mg/h
[2]
  M65V, crude extract, rate of cleavage: 316 nmol/mg/h

## Cc1ncnc2c1ncn2[C@@H]1O[C@@H](CI)[C@@H](O)[C@H]1O [6-Methyl-9-(5-deoxy-5-iodo-α-L-lyxofuranosyl)purine]
[1]
  Wild type, pure enzyme, rate of cleavage: — (No detectable activity at 100 μg/ml (limit of detection approximately 1 nmole/mg/hr))
[2]
  M65V, crude extract, rate of cleavage: 4 nmol/mg/h

## Cc1ncnc2c1ncn2[C@@H]1O[C@H](CI)[C@@H](O)[C@H]1O [6-Methyl-9-(5-deoxy-5-iodo-β-D-ribofuranosyl)purine]
[1]
  Wild type, pure enzyme, rate of cleavage: — (No detectable activity at 100 μg/ml (limit of detection approximately 1 nmole/mg/hr))
[2]
  M65V, pure enzyme, rate of cleavage: — (No detectable activity at 100 μg/ml (limit of detection approximately 1 nmole/mg/hr))

## Cc1ncnc2c1ncn2[C@@H]1O[C@@H](C)[C@@H](O)[C@H]1O [6-Methyl-9-(5-deoxy-α-L-lyxofuranosyl)purine]
[1]
  Wild type, pure enzyme, rate of cleavage: 20 nmol/mg/h
[2]
  M65V, crude extract, rate of cleavage: 3,500 nmole/mg/hr

## Cc1ncnc2c1ncn2[C@@H]1O[C@H](C)[C@@H](O)[C@H]1O [6-Methyl-9-(5-deoxy-β-D-ribofuranosyl)purine]
[1]
  Wild type, pure enzyme, rate of cleavage: 406 nmol/mg/h
[2]
  M65V, crude extract, rate of cleavage: 1800 nmol/mg/h

## Cc1ncnc2ncn([C@H]3C[C@H](O)[C@@H](CO)O3)c12 [7-(2-deoxy-β-D-ribofuranosyl)-6-methylpurine]
[1]
  Wild type, pure enzyme, rate of cleavage: — (No detectable activity at 100 μg/ml (limit of detection approximately 1 nmole/mg/hr))
[2]
  M65V, crude extract, rate of cleavage: — (No detectable activity at 100 μg/ml (limit of detection approximately 1 nmole/mg/hr))

## Cc1ncnc2ncn([C@@H]3O[C@@H](CO)[C@@H](O)[C@H]3O)c12 [7-(α-L-lyxofuranosyl)-6-methylpurine]
[1]
  Wild type, pure enzyme, rate of cleavage: — (No detectable activity at 100 μg/ml (limit of detection approximately 1 nmole/mg/hr))
[2]
  M65V, pure enzyme, rate of cleavage: — (No detectable activity at 100 μg/ml (limit of detection approximately 1 nmole/mg/hr))

## Nc1nc2c(ncn2[C@@H]2O[C@H](CO)[C@@H](O)[C@H]2O)c(=O)[nH]1 [guanosine]
[2]
  M65V, pure enzyme, rate of cleavage: 778,000 nmole/mg/hr
